How the values were obtained:
Assay type in all cases: in vivo
[1] = system: Alopecurus myosuroides (ALOMY); experiment: Pre-emergence biological efficacy, glasshouse pot test; conditions: 312 h, 1,000 g/ha, evaluated after 13 days, 100=total damage, 0=no damage, read-out: Percentage damage caused to weed species, pre-emergence, ALOMY
Protocol: (§1) Seeds of Alopecurus myosuroides (ALOMY), Setaria faberi (SETFA), Echinochloa crus-galli (ECHCG), Solanum nigrum (SOLNI), Amaranthus retroflexus (AMARE) and Ipomea hederaceae (IPOHE) were sown in standard soil in pots. After cultivation for one day under controlled conditions in a glasshouse (at 24/16° C., day/night; 14 hours light; 65% humidity), the plants were sprayed with an aqueous spray solution derived from the formulation of the technical active ingredient in acetone/water (50:50) solution containing 0.5% Tween 20 (polyoxyethylene sorbitan monolaurate, CAS RN 9005-64-5) to give a final dose of 1000 or 250 g/ha of test compound. The test plants were then grown under controlled conditions in the glasshouse (at 24/16° C., day/night; 14 hours light; 65% humidity) and watered twice daily. After 13 days the test was evaluated (100=total damage to plant; 0=no damage to plant).

[2] = system: Amaranthus retroflexus (AMARE); experiment: as above; conditions: 312 h, 1,000 g/ha, evaluated after 13 days, 100=total damage, 0=no damage, read-out: Percentage damage caused to weed species, pre-emergence, AMARE
Protocol: as §1

[3] = system: Echinochloa crus-galli (ECHCG); experiment: as above; conditions: 312 h, 1,000 g/ha, evaluated after 13 days, 100=total damage, 0=no damage, read-out: Percentage damage caused to weed species, pre-emergence, ECHCG
Protocol: as §1

[4] = system: Ipomea hederaceae (IPOHE); experiment: as above; conditions: Ipomoea hederacea, 312 h, 1,000 g/ha, evaluated after 13 days, 100=total damage, 0=no damage, read-out: Percentage damage caused to weed species, pre-emergence, IPOHE
Protocol: as §1

[5] = system: Setaria faberi (SETFA); experiment: as above; conditions: 312 h, 1,000 g/ha, evaluated after 13 days, 100=total damage, 0=no damage, read-out: Percentage damage caused to weed species, pre-emergence, SETFA
Protocol: as §1

[6] = system: Solanum nigrum (SOLNI); experiment: as above; conditions: 312 h, 1,000 g/ha, evaluated after 13 days, 100=total damage, 0=no damage, read-out: Percentage damage caused to weed species, pre-emergence, SOLNI
Protocol: as §1

[7] = system: Alopecurus myosuroides (ALOMY); experiment: Post-emergence biological efficacy, glasshouse pot test; conditions: 312 h, 1,000 g/ha, evaluated after 13 days, 100=total damage, 0=no damage, read-out: Percentage damage caused to weed species, post-emergence, ALOMY
Protocol: as §1, with “for 8 days” for “for one day”, “grown on” for “grown”, “in a” for “in the”

[8] = system: Amaranthus retroflexus (AMARE); experiment: as above; conditions: 312 h, 1,000 g/ha, evaluated after 13 days, 100=total damage, 0=no damage, read-out: Percentage damage caused to weed species, post-emergence, AMARE
Protocol: as §1, with “for 8 days” for “for one day”, “grown on” for “grown”, “in a” for “in the”

[9] = system: Echinochloa crus-galli (ECHCG); experiment: as above; conditions: 312 h, 1,000 g/ha, evaluated after 13 days, 100=total damage, 0=no damage, read-out: Percentage damage caused to weed species, post-emergence, ECHCG
Protocol: as §1, with “for 8 days” for “for one day”, “grown on” for “grown”, “in a” for “in the”

[10] = system: Ipomea hederaceae (IPOHE); experiment: as above; conditions: Ipomoea hederacea, 312 h, 1,000 g/ha, evaluated after 13 days, 100=total damage, 0=no damage, read-out: Percentage damage caused to weed species, post-emergence, IPOHE
Protocol: as §1, with “for 8 days” for “for one day”, “grown on” for “grown”, “in a” for “in the”

[11] = system: Setaria faberi (SETFA); experiment: as above; conditions: 312 h, 1,000 g/ha, evaluated after 13 days, 100=total damage, 0=no damage, read-out: Percentage damage caused to weed species, post-emergence, SETFA
Protocol: as §1, with “for 8 days” for “for one day”, “grown on” for “grown”, “in a” for “in the”

[12] = system: Solanum nigrum (SOLNI); experiment: as above; conditions: 312 h, 1,000 g/ha, evaluated after 13 days, 100=total damage, 0=no damage, read-out: Percentage damage caused to weed species, post-emergence, SOLNI
Protocol: as §1, with “for 8 days” for “for one day”, “grown on” for “grown”, “in a” for “in the”

Row | SMILES | pest or weed control at 1000 g/ha [1] | pest or weed control at 1000 g/ha [2] | pest or weed control at 1000 g/ha [3] | pest or weed control at 1000 g/ha [4] | pest or weed control at 1000 g/ha [5] | pest or weed control at 1000 g/ha [6] | pest or weed control at 1000 g/ha [7] | pest or weed control at 1000 g/ha [8] | pest or weed control at 1000 g/ha [9] | pest or weed control at 1000 g/ha [10] | pest or weed control at 1000 g/ha [11] | pest or weed control at 1000 g/ha [12]
1 | C=Cc1c(C(=O)OC)nc(Cl)c(F)c1NCc1ccccc1[N+](=O)[O-] [Compound 15-27, 6-Chloro-3-ethenyl-5-fluoro-4-[(2-nitrophenylmeth-yl)amino]-pyridine-2-carboxylic acid methyl ester] | 90% | 100% | 90% | 90% | 90% | 100% | 70% | 100% | 70% | 90% | 90% | 100%
2 | COC(=O)c1nc(Cl)cc(NCc2ccccn2)c1Cl [Compound 31-2, 3,6-Dichloro-4-(pyridin-2-ylmethylamino)-pyridine-2-carboxylic acid methyl ester] | 70% | 100% | 60% | 100% | 80% | 100% | 50% | 100% | 20% | 80% | 80% | 100%
3 | COC(=O)c1nc(Cl)cc(NCc2ccco2)c1Cl [Compound 26-2, 3,6-dichloro-4-[(furan-2-ylmethyl)-amino]-pyridine-2-carboxylic acid methyl ester] | 70% | 100% | 30% | 90% | 90% | 100% | 40% | 100% | 30% | 60% | 90% | 100%
4 | C=Cc1c(NCc2ccccc2C)cc(Cl)nc1C(=O)OC [Compound 9-12, 6-Chloro-3-ethenyl-4-[(2-methylphenyl-methyl)-amino]-pyridine-2-carboxylic acid methyl ester] | 10% | 90% | 10% | 60% | 0% | 100% | 40% | 100% | 50% | 40% | 50% | 80%
5 | COC(=O)c1nc(Cl)cc(NCc2ncccc2Cl)c1Br [Compound 32-17, 3-Bromo-6-chloro-4-[(3-chloro-pyridin-2-ylmethyl)-amino]-pyridine-2-carboxylic acid methyl ester] | 10% | 90% | 0% | 80% | 0% | 80% | 20% | 80% | 20% | 50% | 50% | 90%
6 | COC(=O)c1nc(Cl)cc(NCc2ccccc2Br)c1Cl [Compound 72-2, 4-[(2-Bromophenyl-methyl)-amino]-3,6-dichloro-pyridine-2-carboxylic acid methyl ester] | 30% | 90% | 10% | 80% | 30% | 100% | 20% | 100% | 10% | 70% | 70% | 100%
7 | C=Cc1c(NCC2CCCCC2)cc(Cl)nc1C(=O)OC [Compound 67-12, 6-Chloro-4-cyclohexylmeth-ylamino-3-ethenyl-pyridine-2-carboxylic acid methyl ester] | 10% | 100% | 10% | 60% | 0% | 80% | 10% | 90% | 20% | 60% | 20% | 80%
8 | COC(=O)c1nc(Cl)cc(NCc2ccc3c(c2)OCO3)c1Cl [Compound 24-2, 3,6-Dichloro-4-[(3,4-methylenedioxy-phenylmethyl)-amino]-pyridine-2-carboxylic acid methyl ester] | 10% | 100% | 0% | 80% | 70% | 100% | 50% | 100% | 20% | 70% | 80% | 100%
9 | C=Cc1c(NCc2c(Cl)cccc2Cl)cc(Cl)nc1C(=O)OC [Compound 21-12, 6-Chloro-4-[(2,6-dichlorophenyl-methyl)-amino]-3-ethenyl-pyridine-2-carboxylic acid methyl ester] | 0% | 100% | 0% | 30% | 0% | – | 20% | 100% | 10% | 30% | 0% | 80%

Source: patent US20120100990A1, “4 -AMINOPICOLINATES AND THEIR USE AS HERBICIDES” (SYNGENTA CROP PROTECTION LLC, priority 2009, published 2012)
